We go through five compounds from PMC11023033.

This data set in a line: CuAAC: 1,7-diethynyl PDI 8 + bis-azide, [1+1] macrocyclisation; Cu(MeCN)4PF6 0.4 eq with TBTA 0.4 eq (THPTA for 2a), N2, rt. The conditions noted are these: the molecule shown is the open-chain precursor, CH2Cl2, 0.22 mM, 25.0 °C.

In the case of `C#Cc1cc2c3c(ccc4c5c(-c6cn(CCCCCCOc7ccc(OCCCCCCN=[N+]=[N-])cc7)nn6)cc6c7c(ccc(c1c34)c75)C(=O)N(c1c(C(C)C)cccc1C(C)C)C6=O)C(=O)N(c1c(C(C)C)cccc1C(C)C)C2=O` [1b (hydroquinone, n=6)], the ring closure, isolated yield (30-membered ring, 96.0 h) came to 23%.

`C#Cc1cc2c3c(ccc4c5c(-c6cn(CCCCCCCCOc7ccc8ccccc8c7-c7c(OCCCCCCCCN=[N+]=[N-])ccc8ccccc78)nn6)cc6c7c(ccc(c1c34)c75)C(=O)N(c1c(C(C)C)cccc1C(C)C)C6=O)C(=O)N(c1c(C(C)C)cccc1C(C)C)C2=O`: the ring closure, isolated yield (34-membered ring, 96.0 h) was determined as 33%.

For `C#Cc1cc2c3c(ccc4c5c(-c6cn(CCCCOc7ccc8ccccc8c7-c7c(OCCCCN=[N+]=[N-])ccc8ccccc78)nn6)cc6c7c(ccc(c1c34)c75)C(=O)N(c1c(C(C)C)cccc1C(C)C)C6=O)C(=O)N(c1c(C(C)C)cccc1C(C)C)C2=O` [2a (P-BINOL, n=4; PM 2% + PP 2%, dr 1:1)], the ring closure, isolated yield (26-membered ring, 144.0 h) is 4%.

Regarding `C#Cc1cc2c3c(ccc4c5c(-c6cn(CCCCOc7ccc(OCCCCN=[N+]=[N-])cc7)nn6)cc6c7c(ccc(c1c34)c75)C(=O)N(c1c(C(C)C)cccc1C(C)C)C6=O)C(=O)N(c1c(C(C)C)cccc1C(C)C)C2=O` [1a (hydroquinone, n=4)], the ring closure, isolated yield (26-membered ring, 96.0 h) is 24%.

For `C#Cc1cc2c3c(ccc4c5c(-c6cn(CCCCCCOc7ccc8ccccc8c7-c7c(OCCCCCCN=[N+]=[N-])ccc8ccccc78)nn6)cc6c7c(ccc(c1c34)c75)C(=O)N(c1c(C(C)C)cccc1C(C)C)C6=O)C(=O)N(c1c(C(C)C)cccc1C(C)C)C2=O`, under “30-membered ring, 96.0 h”, the ring closure, isolated yield was 53%.
